Experimental data taken from publication PMC8296573, “Synthesis and Biological Evaluation of Fingolimod Derivatives as Antibacterial Agents” (ACS Omega, 2021).
In brackets after ≈: the same amount, converted by molar mass. Read-outs that look alike come from different tables or passages of the source.

Tests used:
S. aureus ATCC 25923 [1] = experiment: Antibacterial activity, pre-exposure (planktonic cells and biofilm formation); type: cell-based, Staphylococcus aureus; conditions: for MIC / inhibition at 5 µM / inhibition at 10 µM / inhibition at 15 µM / inhibition at 25 µM: Staphylococcus aureus, ATCC25923; for inhibition at 5 µM / inhibition at 10 µM / inhibition at 15 µM / inhibition at 25 µM / Average inhibition %, biofilms viability / Average inhibition %, planktonic cells viability: pre-exposure, ± SD
Outline: (§1)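 Compounds in DMSO were plated before bacteria were added (pre-exposure) and incubated 18 h aerobically at 37 °C with shaking. Planktonic cells were read by OD and resazurin fluorescence (20 μM final; ex 560/em 590 nm). Biofilms were read by resazurin, then crystal violet (A595) for total biomass.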

S. aureus ATCC 25923 [2] = experiment: Antibacterial activity, post-exposure on preformed 18-h-old biofilms; type: cell-based, Staphylococcus aureus; conditions: ± SD; for inhibition at 25 µM / inhibition at 50 µM / inhibition at 100 µM / inhibition at 200 µM: Staphylococcus aureus; for inhibition at 25 µM: ATCC25923, 25 µM; for inhibition at 50 µM: ATCC25923, 50 µM; for inhibition at 100 µM: ATCC25923, 100 µM; for inhibition at 200 µM: ATCC25923, 200 µM
Outline: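 Biofilms grown 18 h without compound, medium then replaced and compound added for a further 24 h. Planktonic OD and resazurin (20 μM final) fluorescence (ex 560/em 590 nm) read; washed biofilms stained with 20 μM resazurin 30 min at 37 °C, then ethanol-fixed and crystal violet-stained, absorbance 595 nm.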

A. baumannii NCTC 13423 = experiment: Antibacterial activity, pre-exposure; type: cell-based, Acinetobacter baumannii; conditions: for Average inhibition %, biofilms viability / Average inhibition %, planktonic cells viability / inhibition at 10 µM / inhibition at 15 µM / inhibition at 25 µM / inhibition at 50 µM: A. baumannii NCTC 13423, pre-exposure, ± SD; for inhibition at 10 µM / inhibition at 15 µM / inhibition at 25 µM / inhibition at 50 µM: Acinetobacter baumannii, NCTC13423
Outline: as §1

P. aeruginosa ATCC 9027 = experiment: Antibacterial activity, pre-exposure; type: cell-based, Pseudomonas aeruginosa; conditions: for Average inhibition %, biofilms viability / Average inhibition %, planktonic cells viability / inhibition at 50 µM / inhibition at 100 µM / inhibition at 150 µM / inhibition at 200 µM: P. aeruginosa ATCC 9027, pre-exposure, ± SD; for inhibition at 50 µM / inhibition at 100 µM / inhibition at 150 µM / inhibition at 200 µM: Pseudomonas aeruginosa, ATCC9027
Outline: as §1

[3] = 10 µM, read-out: Average inhibition %, biofilms biomass
[4] = 10 µM, read-out: Average inhibition %, planktonic cells turbidity
[5] = 15 µM, read-out: Average inhibition %, biofilms biomass
[6] = 15 µM, read-out: Average inhibition %, planktonic cells turbidity
[7] = 25 µM, read-out: Average inhibition %, biofilms biomass
[8] = 25 µM, read-out: Average inhibition %, planktonic cells turbidity
[9] = read-out: Average inhibition %, biofilms biomass
[10] = read-out: Average inhibition %, planktonic cells turbidity
[11] = 50 µM, read-out: Average inhibition %, biofilms biomass
[12] = 50 µM, read-out: Average inhibition %, planktonic cells turbidity

CCCCCCCCCCOc1ccc(CCC(N)(CO)CO)cc1 [Compound 49, 2-Amino-2-[4-(decyloxy)phenethyl]propane-1,3-diol]
MIC (S. aureus ATCC 25923 [1]; lowest concentration with no visible growth (>90% inhibition of turbidity and viability of planktonic cells), 18 h, read-out: MIC S. aureus ATCC 25923): 50 to 100 µM (≈ 17.6 to 35.2 µg/mL) | inhibition at 5 µM (S. aureus ATCC 25923 [1]; 5 µM, read-out: Average inhibition %, biofilms biomass): 21.1 ± 15.7% | inhibition at 5 µM (S. aureus ATCC 25923 [1]; 5 µM, read-out: Average inhibition %, planktonic cells turbidity): 25 ± 31.1% | inhibition at 10 µM (S. aureus ATCC 25923 [1]; [3]): 24.7 ± 21.7% | inhibition at 10 µM (S. aureus ATCC 25923 [1]; [4]): 40.2 ± 21.5% | inhibition at 15 µM (S. aureus ATCC 25923 [1]; [5]): 42.1 ± 13.8% | inhibition at 15 µM (S. aureus ATCC 25923 [1]; [6]): 32.7 ± 33.7% | inhibition at 25 µM (S. aureus ATCC 25923 [1]; [7]): 65 ± 8% | inhibition at 25 µM (S. aureus ATCC 25923 [1]; [8]): 52 ± 35.7% | MIC (S. aureus ATCC 25923 [1]; read-out: MIC (S. aureus)): 50 to 100 µM (≈ 17.6 to 35.2 µg/mL) | Average inhibition %, biofilms viability (S. aureus ATCC 25923 [1]; 5 µM): 21.8 ± 13.4% | Average inhibition %, planktonic cells viability (S. aureus ATCC 25923 [1]; 5 µM): 5.8 ± 6.5% | Average inhibition %, biofilms viability (S. aureus ATCC 25923 [1]; 10 µM): 19.2 ± 19.6% | Average inhibition %, planktonic cells viability (S. aureus ATCC 25923 [1]; 10 µM): 16 ± 20.8% | Average inhibition %, biofilms viability (S. aureus ATCC 25923 [1]; 15 µM): 34.9 ± 12.5% | Average inhibition %, planktonic cells viability (S. aureus ATCC 25923 [1]; 15 µM): 6.5 ± 7.4% | Average inhibition %, biofilms viability (S. aureus ATCC 25923 [1]; 25 µM): 46.4 ± 5.4% | Average inhibition %, planktonic cells viability (S. aureus ATCC 25923 [1]; 25 µM): 34.4 ± 41.1% | Average inhibition %, biofilms viability (S. aureus ATCC 25923 [2]; 25 µM): 23.1 ± 12% | Average inhibition %, planktonic cells viability (S. aureus ATCC 25923 [2]; 25 µM): 0 ± 0% | Average inhibition %, biofilms viability (S. aureus ATCC 25923 [2]; 50 µM): 31.6 ± 11.1% | Average inhibition %, planktonic cells viability (S. aureus ATCC 25923 [2]; 50 µM): 0 ± 0% | Average inhibition %, biofilms viability (S. aureus ATCC 25923 [2]; 100 µM): 30.4 ± 13.1% | Average inhibition %, planktonic cells viability (S. aureus ATCC 25923 [2]; 100 µM): 6 ± 10.4% | Average inhibition %, biofilms viability (S. aureus ATCC 25923 [2]; 200 µM): 18.9 ± 12.3% | Average inhibition %, planktonic cells viability (S. aureus ATCC 25923 [2]; 200 µM): 24.6 ± 9.6% | inhibition at 25 µM (S. aureus ATCC 25923 [2]; [9]): 46.2 ± 2.6% | inhibition at 25 µM (S. aureus ATCC 25923 [2]; [10]): 1 ± 1.8% | inhibition at 50 µM (S. aureus ATCC 25923 [2]; [9]): 41.6 ± 16.2% | inhibition at 50 µM (S. aureus ATCC 25923 [2]; [10]): 6.6 ± 6.1% | inhibition at 100 µM (S. aureus ATCC 25923 [2]; [9]): 47.3 ± 10.1% | inhibition at 100 µM (S. aureus ATCC 25923 [2]; [10]): 18.3 ± 26.2% | inhibition at 200 µM (S. aureus ATCC 25923 [2]; [9]): 41.4 ± 16.7% | inhibition at 200 µM (S. aureus ATCC 25923 [2]; [10]): 45 ± 23.1% | Average inhibition %, biofilms viability (A. baumannii NCTC 13423; 10 µM): 0 ± 0% | Average inhibition %, planktonic cells viability (A. baumannii NCTC 13423; 10 µM): 12 ± 4.3% | Average inhibition %, biofilms viability (A. baumannii NCTC 13423; 15 µM): 0 ± 0% | Average inhibition %, planktonic cells viability (A. baumannii NCTC 13423; 15 µM): 8.5 ± 10.6% | Average inhibition %, biofilms viability (A. baumannii NCTC 13423; 25 µM): 0 ± 0% | Average inhibition %, planktonic cells viability (A. baumannii NCTC 13423; 25 µM): 2.6 ± 4.5% | Average inhibition %, biofilms viability (A. baumannii NCTC 13423; 50 µM): 9 ± 8.3% | Average inhibition %, planktonic cells viability (A. baumannii NCTC 13423; 50 µM): 0 ± 0% | inhibition at 10 µM (A. baumannii NCTC 13423; [3]): 0% | inhibition at 10 µM (A. baumannii NCTC 13423; [4]): 0% | inhibition at 15 µM (A. baumannii NCTC 13423; [5]): 1.5 ± 2.4% | inhibition at 15 µM (A. baumannii NCTC 13423; [6]): 0% | inhibition at 25 µM (A. baumannii NCTC 13423; [7]): 1.1 ± 1.9% | inhibition at 25 µM (A. baumannii NCTC 13423; [8]): 0% | inhibition at 50 µM (A. baumannii NCTC 13423; [11]): 4.1 ± 7.2% | inhibition at 50 µM (A. baumannii NCTC 13423; [12]): 1.2 ± 2.1% | MIC A. baumannii NCTC 13423 (A. baumannii NCTC 13423; pre-exposure, Inactive = no activity up to 50 μM, > = some inhibition but no MIC reached): Inactive | Average inhibition %, biofilms viability (P. aeruginosa ATCC 9027; 50 µM): 1.1 ± 1% | Average inhibition %, planktonic cells viability (P. aeruginosa ATCC 9027; 50 µM): 11.2 ± 5% | Average inhibition %, biofilms viability (P. aeruginosa ATCC 9027; 100 µM): 1.4 ± 1.7% | Average inhibition %, planktonic cells viability (P. aeruginosa ATCC 9027; 100 µM): 11 ± 9.5% | Average inhibition %, biofilms viability (P. aeruginosa ATCC 9027; 150 µM): 1.8 ± 2.2% | Average inhibition %, planktonic cells viability (P. aeruginosa ATCC 9027; 150 µM): 10.3 ± 10.8% | Average inhibition %, biofilms viability (P. aeruginosa ATCC 9027; 200 µM): 4.2 ± 7.4% | Average inhibition %, planktonic cells viability (P. aeruginosa ATCC 9027; 200 µM): 8.8 ± 10.7% | inhibition at 50 µM (P. aeruginosa ATCC 9027; [11]): 5.1 ± 7.7% | inhibition at 50 µM (P. aeruginosa ATCC 9027; [12]): 11.2 ± 9.7% | inhibition at 100 µM (P. aeruginosa ATCC 9027; 100 µM, read-out: Average inhibition %, biofilms biomass): 2.5 ± 1.1% | inhibition at 100 µM (P. aeruginosa ATCC 9027; 100 µM, read-out: Average inhibition %, planktonic cells turbidity): 19.8 ± 7.4% | inhibition at 150 µM (P. aeruginosa ATCC 9027; 150 µM, read-out: Average inhibition %, biofilms biomass): 2.8 ± 4.2% | inhibition at 150 µM (P. aeruginosa ATCC 9027; 150 µM, read-out: Average inhibition %, planktonic cells turbidity): 11.4 ± 10.1% | inhibition at 200 µM (P. aeruginosa ATCC 9027; 200 µM, read-out: Average inhibition %, biofilms biomass): 2.2 ± 2.8% | inhibition at 200 µM (P. aeruginosa ATCC 9027; 200 µM, read-out: Average inhibition %, planktonic cells turbidity): 16.7 ± 3% | MIC P. aeruginosa ATCC 9027 (P. aeruginosa ATCC 9027; pre-exposure, Inactive = no activity up to 200 μM, > = some inhibition but no MIC reached): Inactive
